Laboratory results as given in ChEMBL document CHEMBL1201862, “PubChem BioAssay data set” (2004).
“And” between values parts separate entries of the source, which are not always exact repeats. Identical values can stand only once.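 48-hour exposure; five concentrations; linearly interpolated endpoints. At the GI50, growth is halved.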 The source made the active and inactive calls. Rule as the data show it: active = GI50 up to about 1.1 µM and inactive = higher.

Assays:
Experiment in all cases: NCI tumour cell line growth inhibition, 48 h
OVCAR-8 = tested on: OVCAR-8
SK-MEL-28 = tested on: SK-MEL-28
Malme-3M = tested on: Malme-3M
SW-620 = tested on: SW-620
OVCAR-4 = tested on: OVCAR-4
UACC-257 = tested on: UACC-257
TK-10 = tested on: TK-10
HOP-92 = tested on: HOP-92
A549 = tested on: A549
NCI-H23 = tested on: NCI-H23
HOP-62 = tested on: HOP-62
SNB-19 = tested on: SNB-19
K562 = tested on: K562
U-251 = tested on: U-251
ACHN = tested on: ACHN
SF-539 = tested on: SF-539
OVCAR-5 = tested on: OVCAR-5
EKVX = tested on: EKVX
NCI-H226 = tested on: NCI-H226
UO-31 = tested on: UO-31

Measured: GI50

COc1ccc(C2=C(OC(C)=O)c3cccn3-c3ccccc3S2)cc1
inactive: OVCAR-8 5.82 µM | SK-MEL-28 3.66 µM | Malme-3M 2.7 µM | SW-620 2.55 µM | OVCAR-4 4.69 µM | UACC-257 > 10 µM | TK-10 > 10 µM | HOP-92 1.58 µM | A549 7.53 µM | NCI-H23 1.89 µM | HOP-62 3.1 µM

N#CC[C@@H](O)COc1ccccc1
inactive: SNB-19 > 100 µM | K562 > 100 µM | U-251 > 100 µM | OVCAR-8 > 100 µM | SK-MEL-28 > 100 µM | Malme-3M > 100 µM | ACHN > 100 µM | SF-539 > 100 µM | SW-620 > 100 µM | OVCAR-4 > 100 µM | OVCAR-5 > 100 µM | UACC-257 > 100 µM | TK-10 > 100 µM | EKVX > 100 µM | NCI-H226 > 100 µM | A549 > 100 µM | NCI-H23 > 100 µM | HOP-62 > 100 µM | UO-31 > 100 µM

CC(CN1CCN(CC(C)Nc2ccnc3cc(Cl)ccc23)CC1)Nc1ccnc2cc(Cl)ccc12 (stereo not drawn)
inactive: SNB-19 29 µM | K562 2.84 µM | U-251 18.5 µM | OVCAR-8 18.9 µM | SK-MEL-28 1.6 µM | Malme-3M 21.2 µM | ACHN 28.8 µM | SF-539 16 µM | OVCAR-4 20.2 µM | OVCAR-5 23.2 µM | UACC-257 19.4 µM | TK-10 23.9 µM | EKVX 19 µM | NCI-H226 28.4 µM | A549 17.8 µM | NCI-H23 18.6 µM | HOP-62 22.5 µM | UO-31 22.7 µM

CSS(C)(=O)=O
inactive: SNB-19 > 100 µM | K562 31.3 µM | U-251 37.1 µM | OVCAR-8 27.4 µM | SK-MEL-28 21.6 µM | Malme-3M 26.9 µM | ACHN 26.2 µM | SF-539 20.4 µM | SW-620 46.7 µM | OVCAR-4 27.4 µM | OVCAR-5 17.5 µM | UACC-257 23.9 µM | TK-10 24.7 µM | EKVX 27.9 µM | NCI-H226 21.4 µM | A549 44.7 µM | NCI-H23 19.9 µM | HOP-62 44.2 µM | UO-31 24.5 µM

CC(=O)OC1COC(N2CCc3ccccc32)C(OC(C)=O)C1OC(C)=O (stereo not drawn)
inactive: SNB-19 > 100 µM | K562 > 100 µM | U-251 > 100 µM | OVCAR-8 > 100 µM | SK-MEL-28 > 100 µM | Malme-3M > 100 µM | ACHN > 100 µM | SF-539 > 100 µM | SW-620 > 100 µM | OVCAR-4 > 100 µM | OVCAR-5 > 100 µM | UACC-257 > 100 µM | TK-10 > 100 µM | EKVX > 100 µM and > 57.1 µM | NCI-H226 > 100 µM | A549 > 100 µM | NCI-H23 > 100 µM | HOP-62 > 100 µM | UO-31 > 58.7 µM

CN(c1ccc(Cl)cc1)S(=O)(=O)c1ccc([N+](=O)[O-])cc1
inactive: SNB-19 > 100 µM | K562 > 100 µM | U-251 > 100 µM | OVCAR-8 > 100 µM | SK-MEL-28 > 100 µM | Malme-3M 84.7 µM | ACHN > 100 µM | SF-539 > 100 µM | SW-620 > 100 µM | OVCAR-4 > 100 µM | OVCAR-5 > 100 µM | UACC-257 > 100 µM | TK-10 > 100 µM | EKVX > 100 µM | NCI-H226 > 100 µM | A549 > 100 µM | NCI-H23 > 100 µM | HOP-62 > 100 µM | UO-31 > 100 µM

CC(C)=CC(=O)N1CCN(C(=O)C=C(C)C)CC1
inactive: SNB-19 > 100 µM | K562 > 100 µM | U-251 > 100 µM | OVCAR-8 > 100 µM | SK-MEL-28 > 100 µM | ACHN > 100 µM | SF-539 > 100 µM | SW-620 > 100 µM | OVCAR-4 > 100 µM | OVCAR-5 > 100 µM | UACC-257 > 100 µM | TK-10 > 100 µM | HOP-92 > 100 µM | EKVX > 100 µM | A549 > 100 µM | NCI-H23 > 100 µM | HOP-62 > 100 µM | UO-31 > 100 µM

CCOP(C)(=O)C(Cc1c[nH]c2ccccc12)C(=O)O (stereo not drawn)
inactive: SNB-19 > 100 µM | K562 > 100 µM | U-251 > 100 µM | OVCAR-8 > 100 µM | SK-MEL-28 > 100 µM | Malme-3M > 100 µM | ACHN > 100 µM | SF-539 > 100 µM | SW-620 > 100 µM | OVCAR-5 > 100 µM | HOP-92 > 100 µM | EKVX > 100 µM | A549 > 100 µM | HOP-62 > 100 µM | UO-31 > 100 µM
